Experiments:
beta-adrenergic = conditions: cited from earlier work
[1] = preclinical and clinical studies, cited from earlier work
[2] = test system: reduction in bladder capacity following continuous infusion of dilute acetic acid; experiment: Dilute acetic acid irritative model, bladder capacity by cystometry; assay type: in vivo, rat; conditions: isobologram, drug alone; for common maximal effect, return to % of saline control bladder capacity: group mean data; for common maximal effect (target value), return to % of saline control bladder capacity: individual responses
Experimental: Urethane anesthetized (1.2 g/kg) normal female rats were utilized in this study.
Animals were dosed by volume of injection=body weight in kg.
Animal Preparation: Female rats (250-300 g body weight) were anesthetized with urethane (1.2 g/kg) and a saline-filled catheter (PE-50) was inserted into the jugular vein for intravenous drug administration. […] The abdominal cavity was moistened with saline and closed by covering with a thin plastic sheet in order to maintain access to the bladder for emptying purposes. Fine silver or stainless steel wire electrodes were inserted into the external urethral sphincter (EUS) percutaneously for electromyography (EMG).
Following 30 minutes of AA infusion, 3 vehicle injections were made at 20 minute intervals to determine vehicle effects, if any.
P<0.050 was considered significant.

## CC(C)NC[C@H](O)COc1cccc2ccccc12 [L-enantiomer of propranolol, propranolol]
beta-adrenergic
  potency of L-enantiomer relative to D-enantiomer: 100 times

## CC(OC(=O)NCC1(CC(=O)O)CCCCC1)OC(=O)C(C)C (stereo not shown) [XP13512]
[1]; oral
  blood levels of gabapentin across a broad range of oral doses: dose proportional blood levels of gabapentin
[1]
  absorption from the large intestine: absorbed efficiently from the large intestine

## NCC1(CC(=O)O)CCCCC1 [gabapentin, 1-(aminomethyl)cyclohexaneacetic acid]
[2]
  common maximal effect, return to % of saline control bladder capacity: 43 % of saline control
  common maximal effect (target value), return to % of saline control bladder capacity: 31 % of saline control

## CCN(CC)CC#CCOC(=O)C(O)(c1ccccc1)C1CCCCC1 (stereo not shown) [oxybutynin, 4-diethylaminio-2-butynyl phenylcyclohexyglycolate]
[2]
  common maximal effect, return to % of saline control bladder capacity: 43 % of saline control
  common maximal effect (target value), return to % of saline control bladder capacity: 31 % of saline control

Source: US20060276542A1, “Methods for treating functional bowel disorders using alpha2 subunit calcium channel modulators with smooth muscle modulators” (priority 2003, published 2006)
